Measurements: patent US20230357313A1, “SERUM RESISTANT BIS-SULFHYDRYL SPECIFIC BIOTINYLATION REAGENT” (Miltenyi Biotec B.V. & Co. KG, priority 2022, published 2023)

Biological target: T1, biotinidase (Homo sapiens, UniProt P43251)
T1 construct: from tissue
T1 sequence (P43251 22-523): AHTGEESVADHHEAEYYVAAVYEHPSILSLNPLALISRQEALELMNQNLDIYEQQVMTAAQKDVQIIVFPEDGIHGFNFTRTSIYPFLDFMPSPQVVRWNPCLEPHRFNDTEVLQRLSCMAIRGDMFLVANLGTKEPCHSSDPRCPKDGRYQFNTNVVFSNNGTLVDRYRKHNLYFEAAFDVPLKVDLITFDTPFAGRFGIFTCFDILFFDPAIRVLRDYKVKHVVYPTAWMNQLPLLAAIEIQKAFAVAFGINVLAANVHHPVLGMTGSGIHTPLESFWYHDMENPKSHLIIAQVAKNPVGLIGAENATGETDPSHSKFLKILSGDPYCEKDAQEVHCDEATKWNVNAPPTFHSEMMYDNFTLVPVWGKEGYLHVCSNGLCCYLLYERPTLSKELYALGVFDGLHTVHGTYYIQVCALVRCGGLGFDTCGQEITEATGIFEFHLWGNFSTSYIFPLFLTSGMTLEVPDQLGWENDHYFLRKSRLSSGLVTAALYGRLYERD
Test: Biotinidase inhibitor experiment: MS9 anti-CD33 Fab in human serum with or without inhibitor, LC-MS
Format: biochemical
Settings: 1 mM in human serum, 4 h at 37° C.
Protocol: To verify that biotinidase, an enzyme found in the human body amongst other in human serum, causes the cleavage of the biotinamide bond an experiment was performed with a biotinidase inhibitor ((+) Biotin 4 Amidobenzoic Acid, Cayman, CAS. 102418-74-6). Therefore (+) Biotin 4 Amidobenzoic Acid was added at a concentration of 1 mM into the pre-incubation mix containing the human serum. As control no inhibitor was added. The anti-CD33 Fab with MS9 was pre-incubated for 4 hours at 37° C. Subsequently after the incubation the samples were purified via an IgG-CHI Affinity matrix as previously described.
FIG. 5A and FIG. 5B show biotinidase as causative agent for instability of linker in non-heat inactivated serum. Biotinylated (MS9) anti-CD33 FAbs were incubated in freshly prepared human serum for 4 h at 37° C. in the presence (left panel) or absence (right panel) of 1 mM Biotin 4-amidobenzoic acid.

Compound: O=C(CCCC[C@@H]1SC[C@@H]2NC(=O)N[C@@H]21)Nc1ccc(C(=O)[O-])cc1.[Na+] [Biotin 4-amidobenzoic acid, (+) Biotin 4 Amidobenzoic Acid]
- effect of biotinidase inhibitor on biotinamide bond degradation: protects the biotinamide bond from degradation
